Measured values from ChEMBL document CHEMBL3860067, “Investigation of the structure activity relationship of flufenamic acid derivatives at the human TRESK channel K2P18.1” (Bioorg Med Chem Lett, 2016).
Calls of active or inactive are those of the source. The calls are words filed in the database; no cut-off is given here.

Assays:
[1] = target: T1, Potassium channel subfamily K member 18 (Homo sapiens, UniProt Q7Z418); assay: Channel blocking activity at human TRESK channel expressed in HEK293 cells at 100 uM by whole cell patch clamp assay; format: cell-based; conditions: hek293, 100 µM
T1 sequence (Q7Z418 whole entry): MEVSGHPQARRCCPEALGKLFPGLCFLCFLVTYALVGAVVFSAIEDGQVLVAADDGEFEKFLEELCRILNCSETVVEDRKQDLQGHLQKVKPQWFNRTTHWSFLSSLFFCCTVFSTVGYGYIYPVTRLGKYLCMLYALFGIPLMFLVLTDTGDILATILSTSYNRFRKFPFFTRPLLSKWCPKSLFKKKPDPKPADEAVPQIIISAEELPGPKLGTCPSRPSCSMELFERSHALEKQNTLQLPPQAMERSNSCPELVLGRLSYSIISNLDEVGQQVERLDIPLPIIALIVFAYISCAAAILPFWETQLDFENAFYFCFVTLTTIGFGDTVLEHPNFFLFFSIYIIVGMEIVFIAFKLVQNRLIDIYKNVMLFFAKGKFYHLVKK

[2] = target: T1, Potassium channel subfamily K member 18; assay: Channel blocking activity at human TRESK channel
[3] = target: T2, Potassium channel subfamily K member 18 (Homo sapiens) (UniProt Q7Z418); assay: (§1) Activation of human TRESK channel expressed in HEK293 cells assessed as induction of channel current by whole cell patch clamp assay; format: cell-based
T2 sequence (whole entry): T1 sequence (Q7Z418 whole entry)

[4] = target: T1, Potassium channel subfamily K member 18; assay: as §1; format: cell-based
[5] = Lipophilicity, log D of the compound; format: physicochemical; conditions: octanol/water
[6] = target: T2, Potassium channel subfamily K member 18 (Homo sapiens); assay: (§2) Activation of human TRESK channel relative to control
[7] = target: T1, Potassium channel subfamily K member 18; assay: as §2
[8] = target: T2, Potassium channel subfamily K member 18 (Homo sapiens); assay: Activation of human TRESK channel expressed in HEK293 cells assessed as induction of channel current at 100 uM by whole cell patch clamp assay relative to control; format: cell-based

FC(F)(F)c1cccc(Nc2ccccc2-c2nnn[nH]2)c1
Activity [1]: Active

CCN(CC)CC(=O)Nc1c(C)cccc1C [LIDOCAINE]
IC50 [2]: > 100 µM

CC(C)(C)c1cccc(Nc2ccccc2-c2nnn[nH]2)c1
Emax [3]: 102% | EC50 [4]: 18.8 µM | logD [5]: 2.7

O=C(O)c1ccccc1Nc1cccc(Oc2ccccc2)c1
Activity [1]: Active

NC(=O)c1ccccc1Nc1cccc(C(F)(F)F)c1
Activity [1]: Active

c1ccc(-c2nnn[nH]2)c(Nc2cccc3c2CCCC3)c1
Emax [6]: 75% | EC50 [7]: 6 µM

CC(C)(C)c1cccc(Nc2ccccc2C(=O)O)c1
Emax [3]: 354% | EC50 [4]: 45 µM | logD [5]: 3.2

Cc1cc(C)c(Nc2ccccc2C(=O)O)c(C)c1
Activity [1]: Active

O=C(O)c1ccccc1Nc1cccc2c1CCCC2
Activity [1]: Active

O=C(O)c1ccccc1Nc1cccc(C(F)(F)F)c1 [FLUFENAMIC ACID]
EC50 [4]: 474 µM | EC50 [7]: > 100 µM | logD [5]: 2.2

N#Cc1ccccc1Nc1cccc(C(F)(F)F)c1
Activity [1]: Active

O=C(O)c1ccccc1Nc1cccc(-c2ccccc2)c1
Activity [1]: Active

CCCCc1cccc(Nc2ccccc2C(=O)O)c1
Activity [8]: Active
